Results from PubChem BioAssay AID1845207 (Molecular Pharmacology Branch, DTP, NCI, 2023).
Where “and” joins values, the source holds several entries; their conditions need not be identical. Identical values can stand only once.

Tested on: NCI-H1876 tumor spheroid viability
Test: Anticancer human tumor NCI-H1876 cell line growth inhibition;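 further: spheroids exposed to compounds for seven days before the viability read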;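 on viability, T/C: percent of DMSO vehicle control viability so 100% = vehicle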
Conditions: spheroids with HUVEC and MSC; for viability, T/C: stronger effect = lower value
Summary of the method: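 Complex tumor spheroids combined malignant cells with endothelial cells and mesenchymal stem cells. DNA-damaging drugs and DNA repair inhibitors were tested alone and in combination, at half-log dilutions down from clinical Cmax (top 10 microM if Cmax unknown), 0.25% DMSO final.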

[1] = curve of first compound, second compound 1 µM
[2] = curve of first compound, second compound 3.16 µM
[3] = curve of first compound, second compound 10 µM
[4] = curve of first compound, second compound 31.6 µM
[5] = curve of first compound, second compound 100 µM
[6] = second compound 1 µM, first compound 0.0316 µM
[7] = second compound 1 µM, first compound 0.1 µM
[8] = second compound 1 µM, first compound 0.316 µM
[9] = second compound 1 µM, first compound 1 µM
[10] = second compound 1 µM, first compound 3.16 µM
[11] = second compound 1 µM, first compound 10 µM
[12] = second compound 3.16 µM, first compound 0.0316 µM
[13] = second compound 3.16 µM, first compound 0.1 µM
[14] = second compound 3.16 µM, first compound 0.316 µM
[15] = second compound 3.16 µM, first compound 1 µM
[16] = second compound 3.16 µM, first compound 3.16 µM
[17] = second compound 3.16 µM, first compound 10 µM
[18] = second compound 10 µM, first compound 0.0316 µM
[19] = second compound 10 µM, first compound 0.1 µM
[20] = second compound 10 µM, first compound 0.316 µM
[21] = second compound 10 µM, first compound 1 µM
[22] = second compound 10 µM, first compound 3.16 µM
[23] = second compound 10 µM, first compound 10 µM
[24] = second compound 31.6 µM, first compound 0.0316 µM
[25] = second compound 31.6 µM, first compound 0.1 µM
[26] = second compound 31.6 µM, first compound 0.316 µM
[27] = second compound 31.6 µM, first compound 1 µM
[28] = second compound 31.6 µM, first compound 3.16 µM
[29] = second compound 31.6 µM, first compound 10 µM
[30] = second compound 100 µM, first compound 0.0316 µM
[31] = second compound 100 µM, first compound 0.1 µM
[32] = second compound 100 µM, first compound 0.316 µM
[33] = second compound 100 µM, first compound 1 µM
[34] = second compound 100 µM, first compound 3.16 µM
[35] = second compound 100 µM, first compound 10 µM

Compound: COc1cc(C)[nH]c(=O)c1CN1CCc2c(Cl)cc(C(OC)C3COC3)c(Cl)c2C1=O (configuration not stated) + Cn1nnc2c(C(N)=O)ncn2c1=O
- IC50 [1]: > 10000 nM
- IC50 [2]: > 10000 nM
- IC50 [3]: > 10000 nM
- IC50 [4]: > 10000 nM
- IC50 [5]: > 10000 nM
- viability, T/C [6]: 112%
- viability, T/C [7]: 108%
- viability, T/C [8]: 109%
- viability, T/C [9]: 90.8%
- viability, T/C [10]: 92.7%
- viability, T/C [11]: 70.4%
- viability, T/C [12]: 117%
- viability, T/C [13]: 117%
- viability, T/C [14]: 110%
- viability, T/C [15]: 102%
- viability, T/C [16]: 89.9%
- viability, T/C [17]: 75.4%
- viability, T/C [18]: 108%
- viability, T/C [19]: 109%
- viability, T/C [20]: 107%
- viability, T/C [21]: 100%
- viability, T/C [22]: 95%
- viability, T/C [23]: 79.1%
- viability, T/C [24]: 108%
- viability, T/C [25]: 107%
- viability, T/C [26]: 107%
- viability, T/C [27]: 102%
- viability, T/C [28]: 86.5%
- viability, T/C [29]: 71.3%
- viability, T/C [30]: 92.2%
- viability, T/C [31]: 91.4%
- viability, T/C [32]: 81.2%
- viability, T/C [33]: 81.4%
- viability, T/C [34]: 81.7%
- viability, T/C [35]: 72.3%

Compound: COc1ccc([C@@H](O)c2cc(-c3ncnc4cc(N5CCOCC5)ccc34)c(F)cc2Cl)nn1 + Cn1nnc2c(C(N)=O)ncn2c1=O
- IC50 [1]: 1080 nM
- IC50 [2]: 1210 nM
- IC50 [3]: 1000 nM
- IC50 [4]: 970 nM
- IC50 [5]: 335 nM
- viability, T/C [6]: 93.8%
- viability, T/C [7]: 86.7%
- viability, T/C [8]: 74.3%
- viability, T/C [9]: 49%
- viability, T/C [10]: 29%
- viability, T/C [11]: 4.64%
- viability, T/C [12]: 97.5%
- viability, T/C [13]: 85.2%
- viability, T/C [14]: 80%
- viability, T/C [15]: 53.7%
- viability, T/C [16]: 26.5%
- viability, T/C [17]: 4.48%
- viability, T/C [18]: 94.4%
- viability, T/C [19]: 86.3%
- viability, T/C [20]: 72%
- viability, T/C [21]: 51%
- viability, T/C [22]: 23.5%
- viability, T/C [23]: 3.37%
- viability, T/C [24]: 90.8%
- viability, T/C [25]: 82.2%
- viability, T/C [26]: 73.1%
- viability, T/C [27]: 47.7%
- viability, T/C [28]: 25.1%
- viability, T/C [29]: 4.04%
- viability, T/C [30]: 48.4%
- viability, T/C [31]: 65.8%
- viability, T/C [32]: 48.5%
- viability, T/C [33]: 36.1%
- viability, T/C [34]: 17.8%
- viability, T/C [35]: 2.3%

Compound: Cn1ncnc1[C@H]1c2n[nH]c(=O)c3cc(F)cc(c23)N[C@@H]1c1ccc(F)cc1 + Cn1nnc2c(C(N)=O)ncn2c1=O
- IC50 [1]: 43.2 nM
- IC50 [2]: 60.8 nM
- IC50 [3]: 16 nM
- IC50 [4]: < 9.49 nM
- IC50 [5]: < 9.49 nM
- viability, T/C (second compound 1 µM, first compound 0.00949 µM): 70.1%
- viability, T/C (second compound 1 µM, first compound 0.03 µM): 54.6%
- viability, T/C (second compound 1 µM, first compound 0.0949 µM): 39%
- viability, T/C (second compound 1 µM, first compound 0.3 µM): 25.1%
- viability, T/C (second compound 1 µM, first compound 0.949 µM): 10.8%
- viability, T/C (second compound 1 µM, first compound 3 µM): 5.26%
- viability, T/C (second compound 3.16 µM, first compound 0.00949 µM): 72.4%
- viability, T/C (second compound 3.16 µM, first compound 0.03 µM): 52.1%
- viability, T/C (second compound 3.16 µM, first compound 0.0949 µM): 52.3%
- viability, T/C (second compound 3.16 µM, first compound 0.3 µM): 20%
- viability, T/C (second compound 3.16 µM, first compound 0.949 µM): 50%
- viability, T/C (second compound 3.16 µM, first compound 3 µM): 15.5%
- viability, T/C (second compound 10 µM, first compound 0.00949 µM): 56.8%
- viability, T/C (second compound 10 µM, first compound 0.03 µM): 38.1%
- viability, T/C (second compound 10 µM, first compound 0.0949 µM): 47.2%
- viability, T/C (second compound 10 µM, first compound 0.3 µM): 15%
- viability, T/C (second compound 10 µM, first compound 0.949 µM): 33.5%
- viability, T/C (second compound 10 µM, first compound 3 µM): 5.45%
- viability, T/C (second compound 31.6 µM, first compound 0.00949 µM): 29.2%
- viability, T/C (second compound 31.6 µM, first compound 0.03 µM): 19.2%
- viability, T/C (second compound 31.6 µM, first compound 0.0949 µM): 14.5%
- viability, T/C (second compound 31.6 µM, first compound 0.3 µM): 12%
- viability, T/C (second compound 31.6 µM, first compound 0.949 µM): 8.61%
- viability, T/C (second compound 31.6 µM, first compound 3 µM): 4.86%
- viability, T/C (second compound 100 µM, first compound 0.00949 µM): 13.8%
- viability, T/C (second compound 100 µM, first compound 0.03 µM): 10.8%
- viability, T/C (second compound 100 µM, first compound 0.0949 µM): 11.6%
- viability, T/C (second compound 100 µM, first compound 0.3 µM): 9.19%
- viability, T/C (second compound 100 µM, first compound 0.949 µM): 33.3%
- viability, T/C (second compound 100 µM, first compound 3 µM): 4.67%

Compound: [2H]c1nc(C)nc([2H])c1-c1cc(NC[C@@H](C)c2cccc3c(C(=O)NC)ccnc23)ncn1
- viability, T/C (compound 0.0316 µM): 102% and 103% and 99.3%
- viability, T/C (compound 0.1 µM): 107% and 55.1% and 102%
- viability, T/C (compound 0.316 µM): 99.8% and 70.6% and 102%
- viability, T/C (compound 1 µM): 102% and 101% and 99.3%
- viability, T/C (compound 3.16 µM): 102% and 90.8% and 97.4%
- viability, T/C (compound 10 µM): 96.6% and 71% and 95%
- IC50 (curve of compound): > 10000 nM
